Test [1] deals with MCF-7 human breast cancer cell line. As to the kind of experiment: Cell Viability Assay (MCF7), PrestoBlue. The class given is cell-based. The conditions noted are these: MCF7, 72 h, MCF-7 cells, three days after drug treatment. The method in brief: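 MCF-7 cells seeded 24 hours before dosing with 0 to 200 μM compound (11 concentrations, 1% DMSO final) for three days. PrestoBlue (resazurin) added to 10% final, 1 hour incubation, fluorescence at ex 560/em 590 nm; percentage living cells relative to control wells.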

The test system of test [2] is estrogen receptor response gene (SDF) in MCF7 breast cancer cells. As to the kind of experiment: Inhibition of Estrogen Receptor Target Gene Transcription (SDF qPCR). The class given is cell-based. The conditions noted are these: MCF7, 10 nM estradiol, 4 hours. Here is the method: After 4 hours, RNA was harvested and converted into cDNA. qPCR analysis for SDF was performed on all samples and normalized to expression of GAPDH. The data, shown in FIG. 7, is expressed as fold change relative to SDF expression of the cFBS sample.

In the next test the test system is MCF7 breast cancer cells. As to the kind of experiment: Tumor Burden, MCF7 tumors in mice. The class given is in vivo, Nod/Scid-gamma null immunocomprimised mice. Here is the method: MCF7 breast cancer cells grown were innoculated into Nod/Scid-gamma null immunocomprimised mice. The resulting tumors were allowed to reach approximately 100 mm^3 in size and then mice were randomized into vehicle, Faslodex®, 0032661, or Faslodex® plus 0032661 treatment groups. Faslodex® treated mice were dosed with 500 ug Faslodex® once a week via intramuscular injection. 0032661 treated mice were dosed with 35 mg/kg 0032661 five days a week via intraparatoneal injection. Tumors were measured by calipers twice a week.

In test [3] the test system is androgen receptor response gene (PSA) in LNCaP prostate cancer cells. As to the kind of experiment: Inhibition of Androgen Receptor Target Gene Transcription (PSA qPCR). The class given is cell-based. The conditions noted are these: 10 nM DHT, 4 hours, 10 uM bicalutamide, 10 uM enzalutamide, 12.5 or 25 uM 0032661. Here is the method:
After 4 hours, RNA was harvested and converted into cDNA. qPCR analysis for PSA was performed on all samples and normalized to expression of GAPDH. The data, shown in FIG. 11, is expressed as fold change relative to PSA expression of the cFBS sample.
In general terms: Real-time PCR tracks product formation cycle by cycle.

Test [4] deals with Androgen Receptor (AR) luciferase reporter in LNCaP prostate cancer cells. As to the kind of experiment: Inhibition of Androgen Receptor Luciferase Expression. The conditions noted are these: 10 nM DHT, 4 hours, 1 uM bicalutamide, 1 uM enzalutamide, 5 or 10 uM 0032661. The class given is cell-based. Here is the method:
After 4 hours, cell lysate was harvested. 50 μg protein lysates were used in a luciferase assay. The data, shown in FIG. 12, is expressed as relative luciferase units (RLU).

Test [5] shares this test system. As to the kind of experiment: LNCaP ARE Luciferase Assay. The class given is cell-based. The conditions noted are these: 10 nM DHT, 4 hours, 1 uM bicalutamide, 1 uM enzalutamide, 5 or 10 uM 0032661. Here is the method:
LNCaP prostate cancer cells as well as LNCaP cells that overexpress the oncogenic androgen receptor splice variant (designated ARV7) were engineered to express an Androgen Receptor (AR) luciferase reporter (SABiosciences). […] After 4 hours, cell lysate was harvested. 50 μg protein lysates were used in a luciferase assay.

A word on the IC50: it is the point on the concentration scale where inhibition reaches its midpoint. Read a low IC50 as higher potency. As for `FC(F)(F)c1ccc2c(SCCCCCCn3cnc(CN4CCOCC4)c3)ccnc2c1` [Compound 0032661, 4-[[1-[6-[[7-(trifluoromethyl)-4-quinolyl]sulfanyl]hexyl]imidazol-4-yl]methyl]morpholine], the 50% inhibitory concentration (IC50) in test [1] is 6.6 µM. Also, the “SDF gene expression, combination” value in test [2] (1 uM fulvestrant plus 5 uM 0032661) is “reduces SDF gene expression more than either single treatment alone”. Further, the “estrogen receptor target gene transcription (SDF)” value in test [2] (1 uM fulvestrant, 5 or 10 uM 0032661) is “inhibit the estrogen receptor target gene transcription”. In addition, the “tumor burden, combination” value with MCF7 breast cancer cells (500 ug Faslodex once a week intramuscular plus 35 mg/kg 0032661 five days a week) is “reduces tumor burden more than either single treatment alone”. Besides, in the test with MCF7 breast cancer cells (35 mg/kg five days a week, intraperitoneal), the “anti-tumoral effect (tumor size by calipers)” value is listed as “strong anti-tumoral effects”. In addition, in test [3], the “androgen receptor target gene transcription (PSA)” value was “inhibit the androgen receptor target gene transcription”. Further, the “androgen receptor luciferase expression (RLU)” value in test [4] is “inhibit the androgen receptor luciferase expression”. For the same compound, in test [5], the “androgen receptor luciferase expression (fold activation)” value is on record as “inhibit the androgen receptor luciferase expression”.

The record behind these values is patent US10472352B2, “Rac inhibitors” (Geneyus LLC, priority 2017, dated 2019).
